Assay [1] addresses T1, SARS-CoV-2 PLpro (nsp3 1564–1878) (Severe acute respiratory syndrome coronavirus 2, UniProt P0DTD1). Briefly: biochemical. Details: FRET-quenched peptide (Pro3) cleavage by PLpro, 10 min pre-incubation, slope over 20 min, normalised to no-compound control. As to conditions: low concentration screen, read-out: % of control remaining.
In assay [2] the target is T1, SARS-CoV-2 PLpro (nsp3 1564–1878). In words: biochemical. The note with it: high concentration screen, read-out: % of control remaining. Details: FRET-quenched peptide (Pro3) cleavage by PLpro, 10 min pre-incubation, slope over 20 min, normalised to no-compound control.

Structures are written as SMILES. Where two headings read alike, the source gives them in different places.

In PMC8286840, “Identifying SARS-CoV-2 antiviral compounds by screening for small molecule inhibitors of Nsp3 papain-like protease” (Biochemical Journal, 2021) one finds remaining activity data, which are given here for 32 compounds.

On to `CCCc1nn(C)c2c(=O)[nH]c(-c3cc(S(=O)(=O)N4CCN(C)CC4)ccc3OCC)nc12` [Sildenafil], for which the remaining activity at 1.25 µM in assay [1] (Well no.=1836) stood at 99.2%. The remaining activity at 3.75 µM in assay [2] (Well no.=1836) worked out at 96.8%.
Consider `C[C@H](Cc1cc2c(c(C(N)=O)c1)N(CCCO)CC2)NCCOc1ccccc1OCC(F)(F)F` [Silodosin], for which the remaining activity at 1.25 µM in assay [1] (Well no.=6759) was 101%. Besides, the remaining activity at 3.75 µM in assay [2] (Well no.=6759) amounted to 102%.
For `COC(=O)[C@H]1[C@@H](O)[C@@]2(O)c3c(OC)cc(O[C@@H]4O[C@@H]([C@H](O)CO)CO[C@H]4OC)cc3O[C@@]2(c2ccc(OC)cc2)[C@@H]1c1ccccc1` [Silvestrol], in assay [1] (Well no.=7120), the remaining activity at 1.25 µM is 103%. For the same compound, the remaining activity at 3.75 µM in assay [2] (Well no.=7120) was 101%.
Turning to `COc1cc([C@H]2Oc3cc([C@H]4Oc5cc(O)cc(O)c5C(=O)[C@@H]4O)ccc3O[C@@H]2CO)ccc1O` [Silybine], the remaining activity at 1.25 µM in assay [1] (Well no.=3753) was 101%. In addition, the remaining activity at 3.75 µM in assay [2] (Well no.=3753) came to 104%.
As to `CCC(C)(C)C(=O)O[C@H]1C[C@@H](C)C=C2C=C[C@H](C)[C@H](CC[C@@H]3C[C@@H](O)CC(=O)O3)[C@H]21` [Simvastatin], the remaining activity at 1.25 µM in assay [1] (Well no.=1620) stood at 107%. Besides, the remaining activity at 3.75 µM in assay [2] (Well no.=1620) amounted to 107%.
For `COC1=C[C@@H]2[C@@H]3Cc4ccc(OC)c(O)c4[C@]2(CCN3C)CC1=O` [Sinomenine], the remaining activity at 1.25 µM in assay [1] (Well no.=3757) is 97.3%. Further, the remaining activity at 3.75 µM in assay [2] (Well no.=3757) amounted to 98.8%.
For `CCc1cc(/C(C)=N/OCc2ccc(C3CCCCC3)c(C(F)(F)F)c2)ccc1CN1CC(C(=O)O)C1` [Siponimod], in assay [1] (Well no.=6669), the remaining activity at 1.25 µM turned out to be 97.7%. In addition, in assay [2] (Well no.=6669), the remaining activity at 3.75 µM was 93.3%.
For the compound `COc1ncc(-c2nc3c(n2C(C)C)[C@H](c2ccc(Cl)cc2)N(c2cc(Cl)cn(C)c2=O)C3=O)c(OC)n1` [Siremadlin], the remaining activity at 1.25 µM in assay [1] (Well no.=6788) turned out to be 97.9%. Further, the remaining activity at 3.75 µM in assay [2] (Well no.=6788) was 89.6%.
As to `CC(NC(=O)c1ccccc1/N=C/c1c(O)ccc2ccccc12)c1ccccc1` (stereo not shown) [Sirtinol], in assay [1] (Well no.=4783), the remaining activity at 1.25 µM amounted to 103%. Moreover, the remaining activity at 3.75 µM in assay [2] (Well no.=4783) turned out to be 99.9%.
For the compound `N[C@@H]1CN(c2c(F)cc3c(=O)c(C(=O)O)cn([C@@H]4C[C@@H]4F)c3c2Cl)CC12CC2` [Sitafloxacin hydrate], the remaining activity at 1.25 µM in assay [1] (Well no.=4770) amounted to 97.9%. The remaining activity at 3.75 µM in assay [2] (Well no.=4770) was found to be 93.3%.
For `N[C@@H](CC(=O)N1CCn2c(nnc2C(F)(F)F)C1)Cc1cc(F)c(F)cc1F` [Sitagliptin phosphate monohydrate], the remaining activity at 1.25 µM in assay [1] (Well no.=4644) amounted to 105%. Further, the remaining activity at 3.75 µM in assay [2] (Well no.=4644) is 102%.
`Cc1cc2c(cc1CC(=O)c1sccc1S(=O)(=O)Nc1onc(C)c1Cl)OCO2` [Sitaxentan sodium (TBC-11251)]: the remaining activity at 1.25 µM in assay [1] (Well no.=4887) was determined as 95.6%. For the same compound, the remaining activity at 3.75 µM in assay [2] (Well no.=4887) came to 98.3%.
For the compound `Cc1cc2c(cc1CC(=O)c1sccc1S(=O)(=O)Nc1onc(C)c1Cl)OCO2` [Sitaxsentan (sodium)], in assay [1] (Well no.=8533), the remaining activity at 1.25 µM came out at 105%. For the same compound, the remaining activity at 3.75 µM in assay [2] (Well no.=8533) is 106%.
As for `COc1ccc2c(OC)c3ccoc3nc2c1OC` [Skimmianine], the remaining activity at 1.25 µM in assay [1] (Well no.=3201) was determined as 112%. Further, in assay [2] (Well no.=3201), the remaining activity at 3.75 µM amounted to 109%.
With `Nc1ccc(C(=O)O)c(O)c1` [Sodium 4-Aminosalicylate], the remaining activity at 1.25 µM in assay [1] (Well no.=4974) is 101%. In assay [2] (Well no.=4974), the remaining activity at 3.75 µM came out at 95.6%.
For `O=C(O)C(O)Cc1ccc(O)c(O)c1` (stereo not shown) [Sodium Danshensu], the remaining activity at 1.25 µM in assay [1] (Well no.=4868) is 100%. In assay [2] (Well no.=4868), the remaining activity at 3.75 µM is 100%.
`NC(=O)C(=O)O` [Sodium Oxamate]: the remaining activity at 1.25 µM in assay [1] (Well no.=944) was found to be 97.2%. Besides, the remaining activity at 3.75 µM in assay [2] (Well no.=944) came out at 96.9%.
On to `O=C(O)Cc1ccccc1` [Sodium Phenylacetate], for which, in assay [1] (Well no.=1884), the remaining activity at 1.25 µM is 94.7%. In addition, the remaining activity at 3.75 µM in assay [2] (Well no.=1884) is 97.8%.
Turning to `O=C(O)CCCc1ccccc1` [Sodium Phenylbutyrate], in assay [1] (Well no.=1582), the remaining activity at 1.25 µM came out at 106%. The remaining activity at 3.75 µM in assay [2] (Well no.=1582) was 103%.
For the compound `O=S(=O)(O)Oc1ccc(C(c2ccc(OS(=O)(=O)O)cc2)c2ccccn2)cc1` [Sodium Picosulfate], the remaining activity at 1.25 µM in assay [1] (Well no.=4654) stood at 103%. The remaining activity at 3.75 µM in assay [2] (Well no.=4654) amounted to 99.8%.
`CCCC(=O)O` [Sodium butyrate]: the remaining activity at 1.25 µM in assay [1] (Well no.=4674) was 94.4%. Besides, in assay [2] (Well no.=4674), the remaining activity at 3.75 µM amounted to 90%.
On to `O=C(O)C(Cl)Cl` [Sodium dichloroacetate (DCA)], for which the remaining activity at 1.25 µM in assay [1] (Well no.=8490) stood at 96.6%. In addition, the remaining activity at 3.75 µM in assay [2] (Well no.=8490) turned out to be 96.1%.
As to `O=C(O)c1ccccc1O` [Sodium salicylate], the remaining activity at 1.25 µM in assay [1] (Well no.=4971) was found to be 98.6%. Moreover, in assay [2] (Well no.=4971), the remaining activity at 3.75 µM came out at 97.2%.
With `CNc1cccc(NC(=O)N[C@@H]2N=C(c3ccccn3)c3ccccc3N(CC(=O)C(C)(C)C)C2=O)c1` [Sograzepide], in assay [1] (Well no.=8322), the remaining activity at 1.25 µM came out at 94.5%. The remaining activity at 3.75 µM in assay [2] (Well no.=8322) stood at 93%.
As to `CC(C)=CCC/C(C)=C/CC/C(C)=C/CC/C(C)=C/CC/C(C)=C/CC/C(C)=C/CC/C(C)=C/CC/C(C)=C/CC/C(C)=C/CO` [Solanesol], the remaining activity at 1.25 µM in assay [1] (Well no.=3759) was 96.8%. For the same compound, the remaining activity at 3.75 µM in assay [2] (Well no.=3759) was 96.5%.
With `C[C@@H]1CC[C@@]2(NC1)O[C@H]1C[C@H]3[C@@H]4CC=C5C[C@@H](O)CC[C@]5(C)[C@H]4CC[C@]3(C)[C@H]1[C@@H]2C` [Solasodine], the remaining activity at 1.25 µM in assay [1] (Well no.=3467) came to 97.1%. Also, the remaining activity at 3.75 µM in assay [2] (Well no.=3467) worked out at 95.3%.
Regarding `CC[C@H]1OC(=O)[C@@](C)(F)C(=O)[C@H](C)[C@@H](O[C@@H]2O[C@H](C)C[C@H](N(C)C)[C@H]2O)[C@](C)(OC)C[C@@H](C)C(=O)[C@H](C)[C@H]2N(CCCCn3cc(-c4cccc(N)c4)nn3)C(=O)O[C@]12C` [Solithromycin], in assay [1] (Well no.=7990), the remaining activity at 1.25 µM amounted to 97.5%. The remaining activity at 3.75 µM in assay [2] (Well no.=7990) is 95.7%.
Regarding `C=C1[C@H]2C[C@@]3([C@@H]1O)[C@@H](CC2=O)[C@]12[C@@H]4C[C@H]3[C@H]1N(CC)C[C@]4(C)CC[C@@H]2O` [Songorine], the remaining activity at 1.25 µM in assay [1] (Well no.=3203) turned out to be 102%. In assay [2] (Well no.=3203), the remaining activity at 3.75 µM worked out at 102%.
On to `O=C1C=CC[C@@H]2[C@H]3CCCN4CCC[C@@H](CN12)[C@@H]34` [Sophocarpine], for which the remaining activity at 1.25 µM in assay [1] (Well no.=4870) stood at 99.5%. Further, in assay [2] (Well no.=4870), the remaining activity at 3.75 µM worked out at 101%.
With `CNC(=O)c1cc(Oc2ccc(NC(=O)Nc3ccc(Cl)c(C(F)(F)F)c3)cc2)ccn1` [Sorafenib], the remaining activity at 1.25 µM in assay [1] (Well no.=2941) is 101%. Also, the remaining activity at 3.75 µM in assay [2] (Well no.=2941) was found to be 97.8%.
On to `OC[C@@H](O)[C@@H](O)[C@H](O)[C@@H](O)CO` [Sorbitol], for which, in assay [1] (Well no.=8244), the remaining activity at 1.25 µM amounted to 100%. In assay [2] (Well no.=8244), the remaining activity at 3.75 µM turned out to be 99.8%.
In the case of `CCOc1ccc(Cc2cc([C@@H]3O[C@H](SC)[C@@H](O)[C@H](O)[C@H]3O)ccc2Cl)cc1` [Sotagliflozin (LX4211)], the remaining activity at 1.25 µM in assay [1] (Well no.=8820) turned out to be 97.4%. In assay [2] (Well no.=8820), the remaining activity at 3.75 µM worked out at 95.6%.
